Broadly, the pIC50 is the IC50 on a negative log10 scale, so that one unit is a factor of ten.

pIC50: −log10 of the molar value.

The assay deals with T1, human CXCR3 (N-delta 4) (Homo sapiens, UniProt P49682).
T1 construct: CD8 leader (N); Flag tag; expressed in transfected cells; membrane preparation
T1 sequence (P49682 5-368 limits assumed): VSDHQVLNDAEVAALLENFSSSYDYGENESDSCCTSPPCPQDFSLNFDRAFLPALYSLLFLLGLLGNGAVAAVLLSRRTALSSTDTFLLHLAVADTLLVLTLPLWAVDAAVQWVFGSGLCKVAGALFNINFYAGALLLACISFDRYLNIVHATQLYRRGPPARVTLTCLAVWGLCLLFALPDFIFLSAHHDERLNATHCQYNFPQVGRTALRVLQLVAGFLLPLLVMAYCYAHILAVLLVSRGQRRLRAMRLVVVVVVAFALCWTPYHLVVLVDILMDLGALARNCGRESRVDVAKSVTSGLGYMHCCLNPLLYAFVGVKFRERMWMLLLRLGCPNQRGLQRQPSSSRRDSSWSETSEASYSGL
Description: Human CXCR3 (N-delta 4) scintillation proximity assay (SPA), [125I] IP-10 binding to Ba/F3-hCXCR3 membranes. As to conditions: IC50 rating; [125I] IP-10 displacement, human CXCR3; read-out: IC50. The source says: The inventive compounds can readily be evaluated to determine activity at the CXCR3 receptors by known methods, such as, for example, development of a human CXCR3 (N-delta 4) Binding Assay.
The DNA encoding human CXCR3 was cloned by PCR using human genomic DNA (Promega, Madison, Wis.) as a template. The PCR primers were designed based on the published sequence of human orphan receptor GPR9 (1) with incorporated restriction sites, a Kozak consensus sequence, CD8 leader and Flag tag. The PCR product was subcloned into the mammalian expression vector pME18Sneo, a derivative of the SR-alpha expression vector (designated as pME18Sneo-hCXCR3 (N-delta 4).
IL-3-dependent mouse pro-B cells Ba/F3 were transfected by electroporation in 0.4 ml Dulbecco's PBS containing 4×10^6 cells with 20 μg of pME18Sneo-hCXCR3 (N-delta 4) plasmid DNA. Cells were pulsed at 400 Volts, 100 OHMs, 960 μFd. The transfected cells were under selection with 1 mg/ml G418 (Life Technologies, Gaithersburg, Md.). G418-resistant Ba/F3 clones were screened for CXCR3 expression by specific binding of [^125I] IP-10 (NEN Life Science Products, Boston, Mass.).
Ba/F3 cells expressing human CXCR3 (N-delta 4) were pelleted and resuspended in the lysis buffer containing 10 mM HEPES, pH 7.5 and Complete® protease inhibitors (1 tablet per 100 ml) (Boehringer Mannheim, Indianapolis, Ind.) at a cell density of 20×10^6 cells per ml. After 5 minute incubation on ice, cells were transferred to 4639 cell disruption bomb (Parr Instrument, Moline, Ill.) and applied with 1,500 psi of nitrogen for 30 minutes on ice. Large cellular debris was removed by centrifugation at 1,000×g. Cell membrane in the supernatant was sedimented at 100,000×g. The membrane was resuspended in the lysis buffer supplemented with 10% sucrose and stored at −80° C. Total protein concentration of the membrane was determined by BCA method from Pierce (Rockford, Ill.).
Human CXCR3 (N-Delta 4) Scintillation Proximity Assay (SPA):
For each assay point, 2 μg of membrane was preincubated for 1 hr with 300 μg wheat germ agglutinin (WGA) coated SPA beads (Amersham, Arlington Heights, Ill.) in the binding buffer (50 mM HEPES, 1 mM CaCl2, 5 mM MgCl2, 125 mM NaCl, 0.002% NaN3, 1.0% BSA) at room temperature. The beads were spun down, washed once, resuspended in the binding buffer and transferred to a 96-well Isoplate (Wallac, Gaithersburg, Md.). 25 pM of [^125I] IP-10 with tested compounds in a series of titration were added to start the reaction. After 3 hr reaction at room temperature, the amount of [^125I] IP-10 bound to the SPA beads was determined with a Wallac 1450 Microbeta counter.
For orientation: Scintillation proximity formats need no separation of bound from free tracer.
For `CC[C@H]1CN(c2ncc(Nc3c(NCCN(C)C)c(=O)c3=O)cc2Cl)CCN1C1CCN([C@H](CO)c2ccc(Cl)cc2)CC1` [Compound 95], the pIC50 is > 7.60.

For `CC[C@H]1CN(c2ncc(Nc3c(N4CCOCC4)c(=O)c3=O)cc2Cl)CCN1C1CCN(Cc2ccc(Cl)cc2F)CC1` [Compound 96], the pIC50 is > 7.60.

Take `CC[C@H]1CN(c2ncc(Nc3c(NC4CC4)c(=O)c3=O)cc2Cl)CCN1C1CCN(Cc2ccc(Cl)cc2C#N)CC1` [Compound 97]: the pIC50 is > 7.60.

For `C[C@@H]1CN(c2ncc(Nc3c(NCC(F)(F)F)c(=O)c3=O)cc2Cl)[C@@H](C)CN1C1CCN(Cc2ccc(Cl)cc2)CC1` [Compound 98], the pIC50 was > 7.60.

With `CC[C@H]1CN(c2ncc(Nc3c(NC4CC4)c(=O)c3=O)cc2Cl)CCN1C1CCN(Cc2ccc(Cl)cc2[N+](=O)[O-])CC1` [Compound 99], the pIC50 is > 7.60.

Regarding `C[C@@H]1CN(C2CCN(Cc3ccc(Cl)cc3F)CC2)[C@@H](C)CN1c1ncc(Nc2c(N)c(=O)c2=O)cc1Cl` [Compound 100], the pIC50 is > 7.60.

For `CC[C@H]1CN(c2ncc(Nc3c(NC4CC4)c(=O)c3=O)cc2Cl)CCN1C1CCN([C@@H](C(=O)NC)c2ccc(Cl)cc2)CC1` [Compound 101], the pIC50 was > 7.60.

In the case of `CC[C@H]1CN(c2ncc(Nc3c(NC4CC4)c(=O)c3=O)cc2Cl)CCN1C1CCN(C(=O)c2ccc(Cl)cc2)CC1` [Compound 102], the pIC50 was > 7.60.

For the molecule `CC[C@H]1CN(c2ncc(Nc3c(NCC(N)=O)c(=O)c3=O)cc2Cl)CCN1C1CCN([C@H](CO)c2ccc(Cl)cc2)CC1` [Compound 103], the pIC50 was 7.00 to 7.60.

As for `C[C@@H]1CN(C2CCN(Cc3ccc(Cl)cc3F)CC2)[C@@H](C)CN1c1ncc(Nc2c(NCC(F)(F)F)c(=O)c2=O)cc1Cl` [Compound 104], the pIC50 is 7.00 to 7.60.

Turning to `CC[C@H]1CN(c2c(F)cc(Nc3c(NC4CC4)c(=O)c3=O)cc2Cl)CCN1C1CCN(Cc2ccc(Cl)cc2F)CC1` [Compound 105], the pIC50 is 7.00 to 7.60.

Take `CC[C@H]1CN(c2ncc(Nc3c(OC)c(=O)c3=O)cc2Cl)CCN1C1CCN(Cc2ccc(Cl)cc2F)CC1` [Compound 106]: the pIC50 is 7.00 to 7.60.

For `CC[C@H]1CN(c2ncc(Nc3c(NC4CCC4)c(=O)c3=O)cc2Cl)CCN1C1CCN(C(=O)c2ccc(Cl)cc2)CC1` [Compound 107], the pIC50 was 7.00 to 7.60.

For the molecule `CC[C@H]1CN(c2ncc(N(C)c3c(NC4CC4)c(=O)c3=O)cc2Cl)CCN1C1CCN(C(CO)c2ccc(Cl)cc2)CC1` (stereo partly shown) [Compound 108], the pIC50 is 7.00 to 7.60.

Turning to `CC[C@H]1CN(c2ncc(Nc3c(N[C@@H](c4ccc(C)o4)C(C)(C)C)c(=O)c3=O)cc2Cl)CCN1C1CCN([C@H](CO)c2ccc(Cl)cc2)CC1` [Compound 109], the pIC50 is 7.00 to 7.60.

Consider `CC[C@H]1CN(c2ncc(Nc3c(NCC(=O)OC(C)(C)C)c(=O)c3=O)cc2Cl)CCN1C1CCN([C@H](CO)c2ccc(Cl)cc2)CC1` [Compound 110], for which the pIC50 is 7.00 to 7.60.

Turning to `CC[C@H]1CN(c2ncc(Nc3c(NC4CC4)c(=O)c3=O)cc2Cl)CCN1C1CCN(C(=O)c2ccc(Cl)cc2N)CC1` [Compound 111], the pIC50 was 7.00 to 7.60.

Regarding `CC[C@H]1CN(c2ncc(N(C)c3c(NC4CC4)c(=O)c3=O)cc2Cl)CCN1C1CCN([C@H](C(N)=O)c2ccc(Cl)cc2)CC1` [Compound 112], the pIC50 was 7.00 to 7.60.

As for `CC(C)CCN1CCC(N2C[C@H](C)N(c3ncc(Nc4c(NCC(F)(F)F)c(=O)c4=O)cc3Cl)C[C@H]2C)CC1` [Compound 113], the pIC50 is < 7.00.

On to `C[C@@H]1CN(c2ncc(Nc3c(NCC(F)(F)F)c(=O)c3=O)cc2Cl)[C@@H](C)CN1C1CCN(Cc2ccc(C#N)cc2)CC1` [Compound 114], for which the pIC50 is < 7.00.

For the molecule `C[C@@H]1CN(c2ncc(Nc3c(NCC(F)(F)F)c(=O)c3=O)cc2Cl)[C@@H](C)CN1C1CCN(C/C=C/c2ccccc2)CC1` [Compound 115], the pIC50 was < 7.00.

On to `C[C@@H]1CN(c2ncc(Nc3c(NCC(F)(F)F)c(=O)c3=O)cc2Cl)[C@@H](C)CN1C1CCN(CCCc2ccccc2)CC1` [Compound 116], for which the pIC50 is < 7.00.

As for `COc1ccc(CN2CCC(N3C[C@H](C)N(c4ncc(Nc5c(NCC(F)(F)F)c(=O)c5=O)cc4Cl)C[C@H]3C)CC2)cc1` [Compound 117], the pIC50 is < 7.00.

With `C[C@@H]1CN(c2ncc(Nc3c(NCC(F)(F)F)c(=O)c3=O)cc2Cl)[C@@H](C)CN1C1CCN(CCCC2CCCCC2)CC1` [Compound 118], the negative-log IC50 (pIC50) was < 7.00.

In the case of `C[C@@H]1CN(c2ncc(Nc3c(NCC(F)(F)F)c(=O)c3=O)cc2Cl)[C@@H](C)CN1C1CCN(Cc2cccc3c2OCO3)CC1` [Compound 119], the pIC50 is < 7.00.

On to `C[C@@H]1CN(c2ncc(Nc3c(NCC(F)(F)F)c(=O)c3=O)cc2Cl)[C@@H](C)CN1C1CCN(Cc2ccc3c(c2)OCO3)CC1` [Compound 120], for which the pIC50 was < 7.00.

For the molecule `CSc1ccc(CN2CCC(N3C[C@H](C)N(c4ncc(Nc5c(NCC(F)(F)F)c(=O)c5=O)cc4Cl)C[C@H]3C)CC2)cc1` [Compound 121], the pIC50 is < 7.00.

As to `C[C@@H]1CN(c2ncc(NC3C(=O)C(=O)C3NCC(F)(F)F)cc2Cl)[C@@H](C)CN1C1CCN(Cc2ccc3ccccc3c2)CC1` (stereo partly shown) [Compound 122], the pIC50 is < 7.00.

Take `COC(=O)c1ccc(CN2CCC(N3C[C@H](C)N(c4ncc(Nc5c(NCC(F)(F)F)c(=O)c5=O)cc4Cl)C[C@H]3C)CC2)cc1` [Compound 123]: the negative logarithm of the IC50 (pIC50) is < 7.00.

For `C[C@@H]1CN(c2ncc(Nc3c(NCC(F)(F)F)c(=O)c3=O)cc2Cl)[C@@H](C)CN1C1CCN(Cc2ccc(Cl)c(Cl)c2)CC1` [Compound 124], the pIC50 is < 7.00.

As for `C[C@@H]1CN(c2ncc(Nc3c(NCC(F)(F)F)c(=O)c3=O)cc2Cl)[C@@H](C)CN1C1CCN(Cc2ccc(Br)cc2)CC1` [Compound 125], the pIC50 was < 7.00.

On to `C[C@@H]1CN(c2ncc(Nc3c(NCC(F)(F)F)c(=O)c3=O)cc2Cl)[C@@H](C)CN1C1CCN(Cc2ccc(C#Cc3ccccc3)cc2)CC1` [Compound 126], for which the pIC50 is < 7.00.

`CC(C)C1CCC(N2CCC(N3C[C@H](C)N(c4ncc(Nc5c(NCC(F)(F)F)c(=O)c5=O)cc4Cl)C[C@H]3C)CC2)CC1` (stereo partly shown) [Compound 127]: the pIC50 is < 7.00.

Take `CC[C@H]1CN(c2ncc(Nc3c(N(C)C)c(=O)c3=O)cc2Cl)CCN1C1CCN([C@H](C(=O)NC)c2ccc(Cl)cc2)CC1` [Compound 128]: the pIC50 was < 7.00.

Regarding `CC[C@H]1CN(c2ncc(Nc3c(NCC(=O)O)c(=O)c3=O)cc2Cl)CCN1C1CCN([C@H](CO)c2ccc(Cl)cc2)CC1` [Compound 129], the pIC50 was < 7.00.

As to `Cc1cc(Nc2c(NCC(F)(F)F)c(=O)c2=O)cnc1N1C[C@@H](C)N(C2CCN(C(=O)C3CCc4ccccc4C3)CC2)C[C@@H]1C` (stereo partly shown) [Compound 130], the pIC50 is < 7.00.

Regarding `Cc1cc(Nc2c(NCC(F)(F)F)c(=O)c2=O)cnc1N1C[C@@H](C)N(C2CCN(C(=O)c3ccc(C#N)cc3)CC2)C[C@@H]1C` [Compound 131], the pIC50 is < 7.00.

As to `CCC(C)CN1CCC(N2C[C@H](C)N(c3ncc(Nc4c(NCC(F)(F)F)c(=O)c4=O)cc3Cl)C[C@H]2C)CC1` (stereo partly shown) [Compound 132], the pIC50 was < 7.00.

For the molecule `C[C@@H]1CN(c2ncc(Nc3c(NCC(F)(F)F)c(=O)c3=O)cc2Cl)[C@@H](C)CN1C1CCN(Cc2cc3ccccc3o2)CC1` [Compound 133], the pIC50 is < 7.00.

As for `C[C@@H]1CN(c2ncc(Nc3c(NCC(F)(F)F)c(=O)c3=O)cc2Cl)[C@@H](C)CN1C1CCN(Cc2ccc(Cl)cc2Cl)CC1` [Compound 134], the pIC50 was < 7.00.
